Data published in patent publication US20250302981A1, “NOVEL USE OF ANTICANCER AGENT PRODRUG CONJUGATE” (UNIVERSITY OF ULSAN FOUNDATION FOR INDUSTRY COOPERATION, priority 2020, published 2025).
*1 amine or outer side, *2 acyl side, *3 side chain or, on linkers, in order; H or OH if unused. Where a SMILES comes first, the peptide text is derived from it. [ ]: non-standard residue; d: D form. The star is where a group is joined. Doxorubicin(3'-N) = COc1cccc2c1C(=O)c1c(O)c3c(c(O)c1C2=O)C[C@@](O)(C(=O)CO)C[C@@H]3O[C@H]1C[C@H](N*)[C@H](O)[C@H](C)O1; Hexanoyl(6-maleimido) = O=C1C=CC(=O)N1CCCCCC(=O)*; PABC = O=C(OCc1ccc(N[*:1])cc1)[*:2]

Key:
[1] = Pharmacokinetic analysis in rats; format: in vivo, Sprague-Dawley rats; settings: equivalent to 1 mg/kg doxorubicin; for half-life: Sprague-Dawley, rat, plasma, iv, 1 mg/kg
Method: Blood samples were collected at 5, 15, 30, 60, and 90 min intervals and then again at 2, 4, 8, 12, 24, 48, 72, 96, and 144 h. The blood samples were stabilized with sodium citrate and then cryocentrifuged at 2000×g for 15 min to obtain plasma. 200 μl of the plasma sample was placed in a 96-well black microplate and the fluorescence of doxorubicin was measured at 485/590 nm. The reference was fresh plasma and the fluorescence was measured in the same manner.

[2] = system: tumor cell lines with PTEN protein loss genotype; assay: Concentration-dependent cytotoxicity by MTT analysis; format: cell-based; settings: PTEN protein loss cells, up to 100 μM
[3] = target: T1, serum albumin in human blood (human plasma sample) (Homo sapiens, UniProt P02768); assay: Conjugate binding with serum albumin in human plasma, HPLC analysis
T1 construct: from tissue; host or cells: human plasma
Method: The conjugation binding of maleimide-KGDEVD-PABC-doxorubicin with HSA was completed in 3 min. However, when plasma was pre-incubated with 4-maleimidobutyric acid which has a thiol-bound maleimide functional group, prior to incubation with maleimide-KGDEVD-PABC-doxorubicin no, binding of maleimide-KGDEVD-PABC-doxorubicin to plasma was observed even after 1 h as in the previous experiment conducted with serum.

[4] = system: tumor cell lines with KRAS variant genotype; assay: Concentration-dependent cytotoxicity by MTT analysis; format: cell-based; settings: KRAS variant cells
[5] = system: tumor cells having KRAS variant genotype (Mia-paca2); assay: Tumor inhibition compared with Aldoxorubicin in mice implanted with KRAS variant tumor cells; format: in vivo, C3H/HeN mice; settings: Mia-paca2, intravenous every 3 days, equivalent to 5 mg/kg doxorubicin, 1 month
Source text: Using C3H/HeN mice implanted with tumor cells having KRAS variant genotype (Mia-paca2), the tumor inhibition effect of the maleimide-KGDEVD-PABC-doxorubicin (MPD1) synthesized in Example 1 of the present invention, the maleimide-KGDVED-PABC-doxorubicin (EMC-KGDVED-DOX) with different peptide sequence, and Aldoxorubicin, a conventional doxorubicin-based anticancer drug which is linked to a maleimide so that it binds to albumin in plasma upon administration and increases half-life, were compared (FIGS. 19 and 20).

[6] = system: cancer cell groups with PTEN protein loss genotype (H1299, MDA-MB436); assay: Tumor growth in mice inoculated with PTEN protein loss tumor cells; format: in vivo, C3H/HeN mice; settings: intravenous every 3 days, equivalent to 1, 5 and 10 mg/kg doxorubicin, 1 month; compared to the control group
Method: The maleimide-KGDEVD-PABC-doxorubicin was administered intravenously every 3 days at concentrations equivalent to 1, 5, and 10 mg/kg of doxorubicin, respectively, and observed for 1 month.

[7] = Pharmacokinetic analysis in cynomolgus monkeys; format: in vivo; settings: intravenous, equivalent to 1 mg/kg doxorubicin
Method: Blood samples were collected at 15, 30, 45, 60, and 90 min intervals, and then again at 2, 3, 4, 6, 8, 12, 24, 48, 72, 96, 120, 144, and 168 h. The blood samples were stabilized with sodium citrate and then cryocentrifuged at 2000×g for 15 min to obtain plasma. 200 μl of the plasma sample was added to a 96-well black microplate and the fluorescence of doxorubicin was measured at 485/590 nm. The reference was fresh plasma and the fluorescence was measured in the same manner.

[8] = system: tumor cell lines with wild-type PTEN protein genotype; assay: Concentration-dependent cytotoxicity by MTT analysis; format: cell-based; settings: PTEN wild-type cells, up to 100 μM
[9] = system: cell lines with KRAS variant genotype (Mia-paca2, AsPC1, MDA-MB231, CT26, HCT116, H2122, A549); assay: Tumor growth in mice inoculated with wild-type KRAS or KRAS variant tumor cells; format: in vivo, C3H/HeN mice; settings: intravenous every 3 days, equivalent to 1, 5 and 10 mg/kg doxorubicin, 1 month
Method: The maleimide-KGDEVD-PABC-doxorubicin was administered intravenously every 3 days at doses equivalent to 1, 5, and 10 mg/kg of doxorubicin, respectively, and then observed for 1 month. […] Therefore, the prodrug conjugate according to one embodiment of the present invention is not expected to have significant side effects.

[10] = target: T2, human serum albumin (HSA) (Homo sapiens, UniProt P02768); assay: Conjugate binding with human serum albumin, HPLC analysis
T2 construct: purchased Sigma-Aldrich
Method: The maleimide-KGDEVD-PABC-doxorubicin synthesized in Example 1 was then added to a concentration of 100 μM and incubated at room temperature. The samples were analyzed by analytical HPLC (FIG. 1). (KGDEVD corresponds to SEQ ID NO: 32)

[11] = system: tumor cell lines with wild-type KRAS genotype; assay: Concentration-dependent cytotoxicity by MTT analysis; format: cell-based; settings: wild-type KRAS cells, concentrations up to 100 μM
[12] = target: HSA-maleimide-KGDEVD-PABC-doxorubicin, P02768
[13] = target: HSA-Maleimide-KGDVED-PABC-doxorubicin, P02768

Molecule: COc1cccc2c1C(=O)c1c(O)c3c(c(O)c1C2=O)C[C@@](O)(C(=O)CO)C[C@@H]3O[C@H]1C[C@H](NC(=O)OCc2ccc(NC(=O)[C@H](CC(=O)O)NC(=O)[C@@H](NC(=O)[C@H](CCC(=O)O)NC(=O)[C@H](CC(=O)O)NC(=O)CNC(=O)[C@H](CCCCNC(=O)CCCCCN3C(=O)C=CC3=O)NC(C)=O)C(C)C)cc2)[C@H](O)[C@H](C)O1 [maleimide-KGDEVD-PABC-doxorubicin, Ac-Lys(EMC)-Gly-Asp-Glu-Val-Asp-PABC-DOX] (Ac-K(Hexanoyl(6-maleimido))GDEVD[PABC]-{Doxorubicin(3'-N)})
- half-life ([1]; read-out: half-life): > 19 h
- half-life ([1]; read-out: terminal half-life): 0.5 h
- time remained active in plasma after administration ([1]; intravenous): 6 days
- time until plasma concentrations decreased below the detection limit of 5 ng/ml ([1]; intravenous): ≤ 4 h
- IC50 values based on doxorubicin [2]: higher IC50 values
- time to complete conjugation binding with HSA in human plasma ([3]; human plasma, conjugate 100 μM, room temperature): 3 min
- binding to plasma pre-incubated with 4-maleimidobutyric acid ([3]; plasma pre-incubated with 4-maleimidobutyric acid, after 1 h): no, binding
- IC50 [4]: lower
- in vivo anticancer effects (tumor inhibition) [5]: anticancer effects similar to those of Aldoxorubicin
- tumor inhibition [6]: greater tumor inhibition
- half-life ([7]; cynomolgus monkey, in vivo, read-out: terminal half-life): > 106 h
- time detectable in plasma after administration [7]: 7 days
- IC50 values based on doxorubicin [8]: lower IC50 values
- tumor growth inhibition ([9]; KRAS variant versus wild-type KRAS tumors): better tumor growth inhibition than those with wild-type KRAS genotype
- effect on body weight of the experimental animals ([9]; wild-type KRAS and KRAS variant tumors): none of the drugs had a significant effect on the body weight
- time to complete conjugate binding with HSA ([10]; HSA 700 μM in PBS, conjugate 100 μM, room temperature): 3 min
- binding to HSA pre-incubated with 4-maleimidobutyric acid ([10]; HSA pre-incubated with 4-maleimidobutyric acid, after 1 h): no binding
- IC50 [11]: generally higher

Molecule: COc1cccc2c1C(=O)c1c(O)c3c(c(O)c1C2=O)C[C@@](O)(C(=O)CO)C[C@@H]3O[C@H]1C[C@H](NC(=O)OCc2ccc(NC(=O)[C@H](CC(=O)O)NC(=O)[C@@H](NC(=O)[C@H](CCC(=O)O)NC(=O)[C@H](CC(=O)O)NC(=O)CNC(=O)[C@H](CCCCN)NC(C)=O)C(C)C)cc2)[C@H](O)[C@H](C)O1 [AcKGDEVD-PABC-doxorubicin, Ac-Lys-Gly-Asp-Glu-Val-Asp-PABC-DOX, reference compound] (Ac-KGDEVD[PABC]-{Doxorubicin(3'-N)})
- time until plasma concentration decreased below the detection limit of 5 ng/ml [7]: ≤ 6 h

B1: recombinant human caspase-3 (protein)
chain: SGISLDNSYKMDYPEMGLCIIINNKNFHKSTGMTSRSGTDVDAANLRETFRNLKYEVRNKNDLTREEIVELMRDVSKEDHSKRSSFVCVLLSHGEEGIIFGTNGPVDLKKITNFFRGDRCRSLTGKPKLFIIQACRGTELDCGIETDSGVDDDMACHKIPVEADFLYAYSTAPGYYSWRNSKDGSWFIQSLCAMLKQYADKLEFMHILTRVNRKVATEFESFSFDATFHAKKQIPCIVSMLTKELYFYH
- cleavage and release of doxorubicin, HPLC [12]: Doxorubicin was cleaved and isolated from the HSA-maleimide-KGDEVD-PABC-doxorubicin conjugate within 1 h
- cleavage and release of doxorubicin, HPLC [13]: no cleavage was observed for the HSA-Maleimide-KGDVED-PABC-doxorubicin conjugate with a different peptide amino acid sequence
